“Also recorded” adds a separate entry of the source.
Tested on: cats with recalcitrant stomatitis
Assay: Treatment of cats with recalcitrant stomatitis (case reports)
Format: in vivo
Settings: single cat case reports
Experimental: Several cats experiencing recalcitrant stomatitis were treated using oral hygiene composition of the present invention further comprising emilgase. All compositions comprised 0.05% emilgase. All treatments were 5 mL/500 mL water (10 mL/L rate). If additional water was required after the 500 mL was consumed, plain water was offered. Any unconsumed solution was discarded after 24 hours and fresh solution was mixed.

## CN1CCN(c2c(F)cc3c(=O)c(C(=O)O)cn4c3c2OCN4C)CC1 [Zeniquin]
  response of stomatitis to treatment: responded well

## CC[C@H]1OC(=O)[C@H](C)[C@@H](O[C@H]2C[C@@](C)(OC)[C@@H](O)[C@H](C)O2)[C@H](C)[C@@H](O[C@@H]2O[C@H](C)C[C@H](N(C)C)[C@H]2O)[C@](C)(O)C[C@@H](C)CN(C)[C@H](C)[C@@H](O)[C@]1(C)O [Zithromax]
  response of stomatitis to treatment: temporary responses; also recorded: did not respond

From US20150209263A1, “Method and Compositions for Oral Hygiene” (Imrex, Inc., priority 2003, published 2015)
